Laboratory results as given in patent publication US6403139B1, “Process for treating fruit and vegetables using tocopherols as antioxidants” (Xeda International, priority 1999, dated 2002).

Tested on: Granny Smith apples
Experiment: Anti-scald treatment on apples, treating composition applied for 3 minutes by immersion or spraying, then 8 days storage at 20° C.
Protocol: The examples which follow illustrate the invention in further detail. In these examples, the treating composition, preheated to 50° C., is applied for 3 minutes to Granny Smith apples, by immersion or spraying. Treating composition (Composition A) consists of water and 1500 ppm of α-tocopherol. The treatment is carried out by applying the treating composition, brought to 50° C., to the apples for 3 minutes. The treated apples are then stored at ambient temperature (20° C.) for 8 days. The proportion of healthy apples, the proportion of apples for which less than 1 cm^2 of surface area is deteriorated by scald, and the proportion of apples for which more than 1 cm^2 of surface area is affected are then quantified. The apples are treated under the same conditions as in Example 1. By way of additional comparison, the same amount of apples was treated with composition D maintained at ambient temperature (i.e. between 20 and 22° C.). The apples thus treated were then stored for 8 days at ambient temperature (20° C.).

Cc1c(C)c2c(c(C)c1O)CC[C@@](C)(CCC[C@H](C)CCC[C@H](C)CCCC(C)C)O2 [vitamin e, 5,7,8-trimethyltocol]
antioxidant activity at ambient temperature: virtually zero
